Target: Vps34 enzyme (Homo sapiens (Human), UniProt Q8NEB9)
Assay: Vps34 biochemical assay (Adapta kinase assay)
Details: 20 μM ATP and 200 μM PI:PS in substrate mix, 1 h at room temperature, read-out: Median IC50 uM Adapta
Method: Dilution series of compounds of the invention were prepared in DMSO at 100 times the final assay concentration (n1=n0/3 in 10 points). The compounds were further diluted to 4 times the assay concentration in assay buffer (Life technologies buffer Q, PV5125, diluted 5 times supplemented with 2 mM DTT and 2 mM MnCl2). 2.5 μl of the diluted compounds were added to a 384 well assay plate followed by 2.5 μl of 16.5 nM Vps34 enzyme (Life technologies, PV5126). Enzyme and compounds were pre-incubated at rt for 15 min. Then 5 μl of substrate mix containing 20 μM ATP (Life technologies, PV3227) and 200 μM PI:PS substrate (Life technologies, PV5122) in assay buffer was added to the wells containing compound and enzyme. Mixing was performed by pipetting several times. The reaction was incubated at room temperature for 1 h. Then 5 μl stop-detection mix, prepared as described in the Adapta kinase assay kit instructions (Life technologies, PV5099) containing Adapta Eu-anti-ADP antibody (2.3 nM), Alexa Fluor 647 ADP tracer (9 nM) and EDTA (30 mM) in TR-FRET buffer, was added to quench the reaction. Mixing was performed by pipetting several times. The assay plate was then incubated at room temperature for 30 min and read with Artemis micro plate reader. Percent inhibition of the compounds as compared to DMSO treated control samples was calculated. By the use of Dotmatics software compound concentration versus percent inhibition was fitted to generate IC50 values.

Chain of Vps34 enzyme (Q8NEB9 whole entry): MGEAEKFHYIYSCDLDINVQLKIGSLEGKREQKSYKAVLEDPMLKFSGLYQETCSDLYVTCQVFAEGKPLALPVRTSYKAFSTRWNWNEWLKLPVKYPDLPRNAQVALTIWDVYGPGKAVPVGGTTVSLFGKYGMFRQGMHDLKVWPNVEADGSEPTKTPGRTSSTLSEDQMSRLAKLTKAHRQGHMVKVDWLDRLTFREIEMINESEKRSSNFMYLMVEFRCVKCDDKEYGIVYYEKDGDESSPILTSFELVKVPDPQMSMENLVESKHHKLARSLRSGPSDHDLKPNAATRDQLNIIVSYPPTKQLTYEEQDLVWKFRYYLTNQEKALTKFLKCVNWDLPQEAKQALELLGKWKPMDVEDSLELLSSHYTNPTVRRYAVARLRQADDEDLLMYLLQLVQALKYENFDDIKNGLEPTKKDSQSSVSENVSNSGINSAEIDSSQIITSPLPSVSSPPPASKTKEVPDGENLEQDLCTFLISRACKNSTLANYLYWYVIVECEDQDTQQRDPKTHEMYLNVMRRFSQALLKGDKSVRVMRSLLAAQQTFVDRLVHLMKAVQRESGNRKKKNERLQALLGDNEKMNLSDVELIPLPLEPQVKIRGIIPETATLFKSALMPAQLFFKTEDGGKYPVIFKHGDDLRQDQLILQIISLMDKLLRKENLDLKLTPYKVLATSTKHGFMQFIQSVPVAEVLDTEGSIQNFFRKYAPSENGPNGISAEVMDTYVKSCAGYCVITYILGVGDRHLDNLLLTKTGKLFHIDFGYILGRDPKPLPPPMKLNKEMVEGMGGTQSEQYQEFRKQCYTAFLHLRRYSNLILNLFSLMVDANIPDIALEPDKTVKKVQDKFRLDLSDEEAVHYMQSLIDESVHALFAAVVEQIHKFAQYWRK

Row | IC50 [µM] | Structure (SMILES)
1 | 0.09 | COC(C)(C)C1CCCN1c1cc(N2CCOC[C@H]2C)cc(=O)[nH]1 (mixture of isomers) [Example 11, (R) and (S) 6-[2-(1-methoxy-1-methyl-ethyl)pyrrolidin-1-yl]-4-[(3R)-3-methylmorpholin-4-yl]-1H-pyridin-2-one]
2 | 0.09 | C[C@@H]1COCCN1c1cc(N2CCCC2C2CCCCC2)[nH]c(=O)c1 (mixture of isomers) [Example 12, (R) and (S) 6-(2-cyclohexylpyrrolidin-1-yl)-4-[(3R)-3-methylmorpholin-4-yl]-1H-pyridin-2-one]
3 | 0.04 | C[C@@H]1COCCN1c1cc(N2CCCC2c2cc(F)ccc2F)[nH]c(=O)c1 (mixture of isomers) [Example 14, (R) and (S) 6-[2-(2,5-difluorophenyl)pyrrolidin-1-yl]-4-[(3R)-3-methylmorpholin-4-yl]-1H-pyridin-2-one]
4 | 0.06 | C[C@@H]1COCCN1c1cc(N2CCCC2c2cccc(OC(F)(F)F)c2)[nH]c(=O)c1 (mixture of isomers) [Example 15, (R) and (S) 4-[(3R)-3-methylmorpholin-4-yl]-6-[2-[3-(trifluoromethoxy)phenyl]pyrrolidin-1-yl]-1H-pyridin-2-one]
5 | 0.06 | C[C@@H]1COCCN1c1cc(N2CCCC2c2ccccc2)[nH]c(=O)c1 (mixture of isomers) [Example 18, (R) and (S) 4-[(3R)-3-methylmorpholin-4-yl]-6-(2-phenylpyrrolidin-1-yl)-1H-pyridin-2-one]
6 | 0.1 | C[C@@H]1COCCN1c1cc(N2CCCC2c2cnn(C)c2)[nH]c(=O)c1 (mixture of isomers) [Example 19, (R) and (S) 4-[(3R)-3-methylmorpholin-4-yl]-6-[2-(1-methylpyrazol-4-yl)pyrrolidin-1-yl]-1H-pyridin-2-one]
7 | 0.2 | Cc1cc(C2CCCN2c2cc(N3CCOC[C@H]3C)cc(=O)[nH]2)nn1C (mixture of isomers) [Example 20, (R) and (S) 6-[2-(1,5-dimethylpyrazol-3-yl)pyrrolidin-1-yl]-4-[(3R)-3-methylmorpholin-4-yl]-1H-pyridin-2-one]
8 | 0.06 | CCn1ccc(C2CCCN2c2cc(N3CCOC[C@H]3C)cc(=O)[nH]2)n1 (mixture of isomers) [Example 21, (R) and (S) 6-[2-(1-ethylpyrazol-3-yl)pyrrolidin-1-yl]-4-[(3R)-3-methylmorpholin-4-yl]-1H-pyridin-2-one]
9 | 0.06 | Cc1ccc(C2CCCN2c2cc(N3CCOC[C@H]3C)cc(=O)[nH]2)o1 (mixture of isomers) [Example 22, (R) and (S) 6-[2-(5-methyl-2-furyl)pyrrolidin-1-yl]-4-[(3R)-3-methylmorpholin-4-yl]-1H-pyridin-2-one]
10 | 0.03 | C[C@@H]1COCCN1c1cc(N2CCCC2c2cccc(N(C)C)c2)[nH]c(=O)c1 (mixture of isomers) [Example 23, (R) and (S) 6-[2-[3-(dimethylamino)phenyl]pyrrolidin-1-yl]-4-[(3R)-3-methylmorpholin-4-yl]-1H-pyridin-2-one]
11 | 0.03 | CC1COCCN1c1cc(N2CCOC[C@H]2C)cc(=O)[nH]1 (mixture of isomers) [Example 24, (R) and (S) 4-[(3R)-3-methylmorpholin-4-yl]-6-(3-methylmorpholin-4-yl)-1H-pyridin-2-one]
12 | 0.06 | C[C@@H]1COCCN1c1cc(N2CCOCC2c2ccccc2)[nH]c(=O)c1 (mixture of isomers) [Example 26, (R) and (S) 4-[(3R)-3-methylmorpholin-4-yl]-6-(3-phenylmorpholin-4-yl)-1H-pyridin-2-one]
13 | 0.05 | C[C@@H]1COCCN1c1cc(N2CCCC2c2ccccn2)[nH]c(=O)c1 (mixture of isomers) [Example 38, (R) and (S) 4-[(3R)-3-methylmorpholin-4-yl]-6-[2-(2-pyridyl)pyrrolidin-1-yl]-1H-pyridin-2-one]
14 | 0.05 | C[C@@H]1COCCN1c1cc(N2CCCC2c2nccs2)[nH]c(=O)c1 (mixture of isomers) [Example 39, (R) and (S) 4-[(3R)-3-methylmorpholin-4-yl]-6-(2-thiazol-2-ylpyrrolidin-1-yl)-1H-pyridin-2-one]
15 | 0.1 | Cc1cc(C2CCCN2c2cc(N3CCOC[C@H]3C)cc(=O)[nH]2)no1 (mixture of isomers) [Example 40, (R) and (S) 6-[2-(5-methylisoxazol-3-yl)pyrrolidin-1-yl]-4-[(3R)-3-methylmorpholin-4-yl]-1H-pyridin-2-one]
16 | 0.2 | COC(C)(C)C1CCCN1c1cc(N2CCOC[C@H]2C)cc(=O)[nH]1 (single isomer, unassigned) [Example 11_1]
17 | 0.3 | COC(C)(C)C1CCCN1c1cc(N2CCOC[C@H]2C)cc(=O)[nH]1 (single isomer, unassigned) [Example 11_2]

Row | IC50 [µM] | Structure (SMILES)
18 | 0.2 | C[C@@H]1COCCN1c1cc(N2CCCC2C2CCCCC2)[nH]c(=O)c1 (single isomer, unassigned) [Example 12_1]
19 | 0.2 | C[C@@H]1COCCN1c1cc(N2CCCC2C2CCCCC2)[nH]c(=O)c1 (single isomer, unassigned) [Example 12_2]
20 | 0.06 | C[C@@H]1COCCN1c1cc(N2CCCC2c2cccc(F)c2)[nH]c(=O)c1 (single isomer, unassigned) [Example 13_1]
21 | 0.1 | C[C@@H]1COCCN1c1cc(N2CCCC2c2cccc(F)c2)[nH]c(=O)c1 (single isomer, unassigned) [Example 13_2]
22 | 0.02 | C[C@@H]1COCCN1c1cc(N2CCCC2c2cc(F)ccc2F)[nH]c(=O)c1 (single isomer, unassigned) [Example 14_1]
23 | 0.05 | C[C@@H]1COCCN1c1cc(N2CCCC2c2cc(F)ccc2F)[nH]c(=O)c1 (single isomer, unassigned) [Example 14_2]
24 | 0.2 | C[C@@H]1COCCN1c1cc(N2CCCC2c2cccc(OC(F)(F)F)c2)[nH]c(=O)c1 (single isomer, unassigned) [Example 15_1]
25 | 0.2 | C[C@@H]1COCCN1c1cc(N2CCCC2c2cccc(OC(F)(F)F)c2)[nH]c(=O)c1 (single isomer, unassigned) [Example 15_2]
26 | 0.03 | C[C@@H]1COCCN1c1cc(N2CCCC2c2cccc(C(F)(F)F)c2)[nH]c(=O)c1 (single isomer, unassigned) [Example 16_1]
27 | 0.08 | C[C@@H]1COCCN1c1cc(N2CCCC2c2cccc(C(F)(F)F)c2)[nH]c(=O)c1 (single isomer, unassigned) [Example 16_2]
28 | 0.02 | COc1cccc(C2CCCN2c2cc(N3CCOC[C@H]3C)cc(=O)[nH]2)c1 (single isomer, unassigned) [Example 17_1]
29 | 0.07 | C[C@@H]1COCCN1c1cc(N2CCCC2c2ccccc2)[nH]c(=O)c1 (single isomer, unassigned) [Example 18_1]
30 | 0.3 | C[C@@H]1COCCN1c1cc(N2CCCC2c2cnn(C)c2)[nH]c(=O)c1 (single isomer, unassigned) [Example 19_1]
31 | 0.3 | C[C@@H]1COCCN1c1cc(N2CCCC2c2cnn(C)c2)[nH]c(=O)c1 (single isomer, unassigned) [Example 19_2]
32 | 0.06 | Cc1cc(C2CCCN2c2cc(N3CCOC[C@H]3C)cc(=O)[nH]2)nn1C (single isomer, unassigned) [Example 20_1]
33 | 0.2 | Cc1cc(C2CCCN2c2cc(N3CCOC[C@H]3C)cc(=O)[nH]2)nn1C (single isomer, unassigned) [Example 20_2]
34 | 0.1 | CCn1ccc(C2CCCN2c2cc(N3CCOC[C@H]3C)cc(=O)[nH]2)n1 (single isomer, unassigned) [Example 21_1]

From patent US11179399B2, “6-heterocyclyl-4-morpholin-4-ylpyridine-2-one compounds useful for the treatment of cancer and diabetes” (Sprint Bioscience AB, priority 2016, dated 2021)
